Test results taken from patent US20260200982A1, “HER RECEPTOR DERIVED PEPTIDES AND METHODS OF USE THEREOF” (Ramot at Tel-Aviv University Ltd., priority 2022, published 2026).
pIC50: −log10 of the molar value. Entries after “also recorded” stand apart in the source; their conditions may differ. The star is where a group is joined. Myristoyl = CCCCCCCCCCCCCC(=O)*

Key:
[1] = tested on: SKBR3 breast cancer cells; type: cell-based, human
Source text: (§1) Cell lines—Human breast cancer cell lines SKBR3 [Peles E et al. EMBO J. (1993) 12(3):961-71] and MCF7 [Faigenbloom L et al., Mol Syst Biol. (2015) 11(12):845] and human glioblastoma U87 [Goldberg L et al. Cancer Res. (2006) 66(24):11709-17] cell line, as well as Rat-1 fibroblast cells and H-Ras-transformed Rat-1 cells (EJ cells) [Marom M et al. J Biol Chem. (1995) 270(38):22263-70] and human Panc-1 and MIA PaCa-2 pancreatic cell lines (Rak R et al. Oncoscience. 2014 1(1):39-48; Weisz B et al. Oncogene (1999) 18, 2579±2588) were all grown in Dulbecco's modified Eagle's medium (DMEM; Biological Industries, Beithaemek, Israel). Human colorectal cancer cell lines DLD-1 (ATTC Cat No. CCL-221), HCT-116 (ATTC Cat No. CCL-247) and LNCaP prostate cancer cells were grown in Roswell Park Memorial Institute 1640 (RPMI 1640) medium and McCoy's 5A media, respectively (Sigma-Aldrich). All media were supplemented with antibiotics and 10% heat-inactivated fetal bovine serum (FBS; Gibco). Human breast cell line MCF10A [Bott A et al. Oncotarget. (2017) 8(27):43897-43914] was grown in Dulbeco's Modified Eagle's Medium/Nutrient Mixture F-12 HAM medium (DMEM F-12 HAM; Sigma-Aldrich), supplemented with antibiotics, 5% inactivated horse serum (HS; Invitrogen), 2 mM L-glutamine (Biological Industries, Beithaemek, Israel), 0.1 μg/ml cholera toxin (Sigma-Aldrich), 0.5 μg/ml hydrocortisone (Sigma-Aldrich), 10 μg/ml insulin (Biological Industries, Beithaemek, Israel) and 2 ng/ml EGF (R&D Systems). Cells were incubated at 37° C. in 5% CO2 in air, and the medium was changed every 3-4 days. Cells were passaged in trypsin/disodium ethylenediaminetetraacetic acid (Biological Industries, Beithaemek, Israel) when confluency reached 70%. One day prior to treatment the cells were plated at ~50% confluency in a medium supplemented with 10% FBS or 5% HS, accordingly.
(§2) Methylene blue viability assay—Cells were plated in 96-wells plates at cell densities of 1.5×10^3 (EJ, DLD-1), 3×10^3 (Rat-1, HCT-116, U87), 5×10^3 (SKBR3, MCF7) and 6×10^3 (MCF10A) cells/well. […] Cell number determination was performed as described previously. IC-50 values were calculated using a non-linear regression model (logarithmic inhibitor vs. normalized response-variable slope) with the GraphPad Prism 6 software.

MCF7 breast cancer cells = type: cell-based, human; details: MCF7
Source text: as §1, §2

DLD-1 colon cancer cells = type: cell-based, human; details: DLD-1; 72 hours; FIGS. 4B and 4C; read-out: IC50 (cell viability)
Source text: as §1
Methylene blue viability assay—Cells were plated in 96-wells plates at cell densities of 1.5×10^3 (EJ, DLD-1), 3×10^3 (Rat-1, HCT-116, U87), 5×10^3 (SKBR3, MCF7) and 6×10^3 (MCF10A) cells/well. On the following day, cells were treated as indicated, and grown for 72 hours. Cell number determination was performed as described previously. IC-50 values were calculated using a non-linear regression model (logarithmic inhibitor vs. normalized response-variable slope) with the GraphPad Prism 6 software.

[2] = tested on: H-Ras-transformed Rat-1 cells (EJ cells); type: cell-based; details: FIG. 4C
Source text: Cell lines—Human breast cancer cell lines SKBR3 [Peles E et al. EMBO J. (1993) 12(3):961-71] and MCF7 [Faigenbloom L et al., Mol Syst Biol. (2015) 11(12):845] and human glioblastoma U87 [Goldberg L et al. Cancer Res. (2006) 66(24):11709-17] cell line, as well as Rat-1 fibroblast cells and H-Ras-transformed Rat-1 cells (EJ cells) [Marom M et al. J Biol Chem. (1995) 270(38):22263-70] and human Panc-1 and MIA PaCa-2 pancreatic cell lines (Rak R et al. Oncoscience. 2014 1(1):39-48; Weisz B et al. Oncogene (1999) 18, 2579±2588) were all grown in Dulbecco's modified Eagle's medium (DMEM; Biological Industries, Beithaemek, Israel). Human colorectal cancer cell lines DLD-1 (ATTC Cat No. CCL-221), HCT-116 (ATTC Cat No. CCL-247) and LNCaP prostate cancer cells were grown in Roswell Park Memorial Institute 1640 (RPMI 1640) medium and McCoy's 5A media, respectively (Sigma-Aldrich). All media were supplemented with antibiotics and 10% heat-inactivated fetal bovine serum (FBS; Gibco). Human breast cell line MCF10A [Bott A et al. Oncotarget. […]
Methylene blue viability assay—Cells were plated in 96-wells plates at cell densities of 1.5×10^3 (EJ, DLD-1), 3×10^3 (Rat-1, HCT-116, U87), 5×10^3 (SKBR3, MCF7) and 6×10^3 (MCF10A) cells/well. […] IC-50 values were calculated using a non-linear regression model (logarithmic inhibitor vs. normalized response-variable slope) with the GraphPad Prism 6 software.

[3] = tested on: Panc-1 (pancreatic cancer) tumor xenografts; experiment: Pancreatic Tumor Growth in Nude Mice; type: in vivo; details: Panc-1 xenografts, 25 μg intraperitoneal daily, FIGS. 9A-C
Protocol: Pancreatic Tumor Growth in Nude Mice—The study was conducted according to the NIH Guidelines for Use and Care of Laboratory Animals and following the approval by Animal Care Committee of the Tel Aviv University. Nude CD1-Nu mice (25-30 g) housed in barrier facilities on a 12-h light/dark cycle one week prior to the injection of tumor cells (day zero). On day zero, 2×10^6 Panc 1 cells in 0.1 ml of PBS were implanted subcutaneously just above the right femoral joint. Tumor size was measured every 3-4 days. When the tumors were apparently seen and the calculated tumor size was 40 mm^3, the animals were divided randomly into two groups of mice (control vehicle treated and myr-NLS (SEQ ID NO: 5) treated; 8 mice per group). Treatment with the myr-NLS (SEQ ID NO: 5) was performed by intraperitoneal injection of 25 μg in 100 μl PBS (or 100 μl PBS for control mice) every day. Tumors size was measured 3 times a week. At the end of the experiment, the mice were sacrificed, and the tumors were dissected and used for further analysis.

MIA PaCa-2 cells = experiment: Colony formation assay, MIA PaCa-2; type: cell-based, human; details: 4.5 μM, 72 hours, FIG. 8
Protocol: Colony formation assay—Cells were plated onto 12-well plate (6×10^4 cells/well) and treated with either PBS or myr-NLS at the IC50 concentration for 3 days. Cells were collected and replated in 10-cm plates (at 3 dilutions of 1:10, 1:20 and 1:40). After 7-14 days when visible and yet separated colonies were formed, the cells were fixed with 0.1% acetic acid in PBS, and stained with 0.4% crystal violet in 0.1% acetic acid. Total colonies area was calculated using the ImageJ program.
In order to test the effect of myr-NLS on cell tumorigenicity, a colony formation assay was performed. To this end, Panc-1 and MIA PaCa-2 cells were treated or untreated for 72 hours with IC50 dose of myr-NLS (SEQ ID NO: 5, 8 μM and 4.5 μM respectively). Cells were then seeded at the same dilutions in new plates until colonies were formed.

[4] = tested on: DLD-1 colon cancer tumor xenografts; experiment: Colon Tumor Growth in Nude Mice; type: in vivo; details: DLD-1 xenografts, 25 μg/100 μl PBS intraperitoneal daily, FIGS. 14A-C
Protocol: Colon Tumor Growth in Nude Mice—Nude CD1-Nu mice (25-30 g) housed in barrier facilities on a 12-h light/dark cycle one week prior to the injection of tumor cells (day zero). On day zero, 5×10^6 DLD-1 cells were implanted subcutaneously just above the right femoral joint. Tumor size was measured every 3-4 days. When the tumors were apparently seen, the animals were divided randomly into three groups of mice [control vehicle treated, myr-NLS1 (SEQ ID NO: 5), myr-NLS4 (SEQ ID NO: 17)]. Treatment was performed by intraperitoneal injection of 25 μg in 100 μl PBS every day. Mice were weighed and tumors size was measured 3 times a week. At the end of the experiment, the mice were sacrificed, and the tumors were dissected and used for further analysis.

- pIC50 ([1]; SKBR3, 72 hours, FIGS. 4B and 4C, read-out: IC50 (cell viability)): 4.69
- pIC50 (MCF7 breast cancer cells; 72 hours, FIGS. 4B and 4C, read-out: IC50 (cell viability)): 4.63
- pIC50 (DLD-1 colon cancer cells): 4.47
Substance: Myr-RRRHIVRKRTLRRLL-OH (Myristoyl-RRRHIVRKRTLRRLL-OH; SMILES CCCCCCCCCCCCCC(=O)N[C@@H](CCCNC(=N)N)C(=O)N[C@@H](CCCNC(=N)N)C(=O)N[C@@H](CCCNC(=N)N)C(=O)N[C@@H](Cc1c[nH]cn1)C(=O)N[C@H](C(=O)N[C@H](C(=O)N[C@@H](CCCNC(=N)N)C(=O)N[C@@H](CCCCN)C(=O)N[C@@H](CCCNC(=N)N)C(=O)N[C@H](C(=O)N[C@@H](CC(C)C)C(=O)N[C@@H](CCCNC(=N)N)C(=O)N[C@@H](CCCNC(=N)N)C(=O)N[C@@H](CC(C)C)C(=O)N[C@@H](CC(C)C)C(=O)O)[C@@H](C)O)C(C)C)[C@@H](C)CC) [myr-NLS]
- viability of SKBR3 breast cancer cells ([1]; 80 μM peptide for 72 hours, FIG. 4A): significantly reduced viability
- effect on viability as compared to non-transformed MCF10 cells ([1]; SKBR3, FIG. 4C): much more pronounced
- effect on viability as compared to non-transformed MCF10 cells (MCF7 breast cancer cells; FIG. 4C): much more pronounced
- viability of Rat-1 fibroblast cells transformed with constitutive Ras (EJ) [2]: decreased viability
- tumor growth (tumor size, tumor weight) [3]: significantly reduced tumor cell growth; also recorded: inhibits pancreatic tumor growth
- colony formation (total colonies area) (MIA PaCa-2 cells): fewer and smaller colonies
- tumor growth (tumor size, tumor weight) [4]: significantly reduced tumor cell growth
